Test results as given in US20090155209A1, “NOVEL MACROCYCLIC INHIBITORS OF HEPATITIS C VIRUS REPLICATION” (priority 2007, published 2009).

Assays:
[1] = molecular target: T1, NS3-NS4 (Hepatitis C virus genotype 1a, UniProt P27958); assay: NS3-NS4 activity, IC50 (Example 37, Table 8); type: biochemical
[2] = molecular target: T1, NS3-NS4; assay: cell-based; details: EC50, NS3-NS4 activity

T1 sequence (P27958 1027-1657): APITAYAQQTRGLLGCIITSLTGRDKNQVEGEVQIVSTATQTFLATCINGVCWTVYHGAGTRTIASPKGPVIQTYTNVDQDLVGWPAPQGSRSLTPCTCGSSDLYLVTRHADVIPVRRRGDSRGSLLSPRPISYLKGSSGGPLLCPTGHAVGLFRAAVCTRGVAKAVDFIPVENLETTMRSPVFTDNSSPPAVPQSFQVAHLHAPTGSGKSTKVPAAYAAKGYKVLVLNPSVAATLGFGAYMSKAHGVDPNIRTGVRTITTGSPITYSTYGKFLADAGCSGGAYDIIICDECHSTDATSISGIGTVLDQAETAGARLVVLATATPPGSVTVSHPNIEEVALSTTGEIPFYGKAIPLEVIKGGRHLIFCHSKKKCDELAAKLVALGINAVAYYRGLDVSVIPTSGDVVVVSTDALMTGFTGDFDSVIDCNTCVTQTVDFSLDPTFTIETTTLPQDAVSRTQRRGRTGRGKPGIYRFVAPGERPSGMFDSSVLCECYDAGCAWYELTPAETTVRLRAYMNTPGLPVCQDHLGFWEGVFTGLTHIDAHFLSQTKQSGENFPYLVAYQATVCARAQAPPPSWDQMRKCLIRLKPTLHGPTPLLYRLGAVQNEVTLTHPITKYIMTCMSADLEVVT
T1 sequence (P27958 1658-1711): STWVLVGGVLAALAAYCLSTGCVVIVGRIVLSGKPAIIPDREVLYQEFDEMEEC

SMILES	IC50 [1] [nM]	EC50 [2] [nM]
O=C(N[C@H]1CCCCC/C=C\[C@@H]2C[C@@]2(C(=O)NS(=O)(=O)C2CC2)NC(=O)[C@@H]2C[C@@H](OC(=O)N3Cc4cccc(F)c4C3)CN2C1=O)OCC1CCC1 [Compound 430]	< 100	< 100
O=C(N[C@H]1CCCCC/C=C\[C@@H]2C[C@@]2(C(=O)NS(=O)(=O)C2CC2)NC(=O)[C@@H]2C[C@@H](OC(=O)N3Cc4cccc(Cl)c4C3)CN2C1=O)OC1CCC1 [Compound 433]	< 100	< 100
O=C(N[C@H]1CCCCC/C=C\[C@@H]2C[C@@]2(C(=O)NS(=O)(=O)C2CC2)NC(=O)[C@@H]2C[C@@H](OC(=O)N3Cc4cccc(F)c4C3)CN2C1=O)OCC1CC1 [Compound 434]	< 100	< 100
CC1(COC(=O)N[C@H]2CCCCC/C=C\[C@@H]3C[C@@]3(C(=O)NS(=O)(=O)C3CC3)NC(=O)[C@@H]3C[C@@H](OC(=O)N4Cc5cccc(F)c5C4)CN3C2=O)CC1 [Compound 435]	< 100	< 100
CC(C)COC(=O)N[C@H]1CCCCC/C=C\[C@@H]2C[C@@]2(C(=O)NS(=O)(=O)C2CC2)NC(=O)[C@@H]2C[C@@H](OC(=O)N3Cc4cccc(F)c4C3)CN2C1=O [Compound 436]	< 100	< 100
CC(C)CN(C)C(=O)N[C@H]1CCCCC/C=C\[C@@H]2C[C@@]2(C(=O)NS(=O)(=O)C2CC2)NC(=O)[C@@H]2C[C@@H](OC(=O)N3Cc4cccc(F)c4C3)CN2C1=O [Compound 437]	< 100	< 100
CN(C(=O)N[C@H]1CCCCC/C=C\[C@@H]2C[C@@]2(C(=O)NS(=O)(=O)C2(C)CC2)NC(=O)[C@@H]2C[C@@H](OC(=O)N3Cc4cccc(F)c4C3)CN2C1=O)C(C)(C)C [Compound 440]	< 100	< 100
CN(C(=O)N[C@H]1CCCCC/C=C\[C@@H]2C[C@@]2(C(=O)NS(=O)(=O)C2(C)CC2)NC(=O)[C@@H]2C[C@@H](OC(=O)N3Cc4cccc(Cl)c4C3)CN2C1=O)C(C)(C)C [Compound 441]	< 100	< 100
CCC1(OC(=O)N[C@H]2CCCCC/C=C\[C@@H]3C[C@@]3(C(=O)NS(=O)(=O)C3CC3)NC(=O)[C@@H]3C[C@@H](OC(=O)N4Cc5cccc(F)c5C4)CN3C2=O)CC1 [Compound 442]	< 100	< 100
CC(C)(OC(=O)N[C@H]1CCCCC/C=C\[C@@H]2C[C@@]2(C(=O)NS(=O)(=O)C2CC2)NC(=O)[C@@H]2C[C@@H](OC(=O)N3Cc4cccc(F)c4C3)CN2C1=O)C1CC1 [Compound 443]	< 100	< 100
CC(C)(C)OC(=O)N[C@H]1CCCCC/C=C\[C@@H]2C[C@@]2(C(=O)NS(=O)(=O)C2(C)CC2)NC(=O)[C@@H]2C[C@@H](OC(=O)N3Cc4cccc(F)c4C3)CN2C1=O [Compound 444]	< 100	< 100
CC(C)(C)OC(=O)N[C@H]1CCCCC/C=C\[C@@H]2C[C@@]2(C(=O)NS(=O)(=O)C2(C)CC2)NC(=O)[C@@H]2C[C@@H](OC(=O)N3Cc4cccc(Cl)c4C3)CN2C1=O [Compound 445]	< 100	< 100
O=C(N[C@H]1CCCCC/C=C\[C@@H]2C[C@@]2(C(=O)NS(=O)(=O)C2CC2)NC(=O)[C@@H]2C[C@@H](OC(=O)N3Cc4cccc(F)c4C3)CN2C1=O)OC1(C2CC2)CC1 [Compound 446]	< 100	< 100
O=C1N[C@]2(C(=O)NS(=O)(=O)C3CC3)C[C@H]2/C=C\CCCCC[C@H](Nc2ccc(F)cc2)C(=O)N2C[C@H](OC(=O)N3Cc4cccc(F)c4C3)C[C@@H]12 [Compound 447, (2R,6S,13aS,14aR,16aS,Z)-14a-(cyclopropylsulfonylcarbamoyl)-6-(4-fluorophenylamino)-5,16-dioxo-1,2,3,5,6,7,8,9,10,11,13a,14,14a,15,16,16a-hexadecahydrocyclopropa[e]pyrrolo[1,2-a][1,4]diazacyclopentadecin-2-yl 4-fluoroisoindoline-2-carboxylate]	< 100	< 100
